The record followed here is patent publication US20120095055A1, “HEXAHYDROCYCLOPENTYL[f]INDAZOLE 5-HYDROXYMETHYL ETHANOLS AND DERIVATIVES THEREOF AS SELECTIVE GLUCOCORTICOID RECEPTOR MODULATORS” (Merck Sharp & Dohme, Corp., priority 2009, published 2012).

For the experiment, the target named is T1, human GR (Homo sapiens, UniProt P04150).
T1 construct: naturally expresses the human GR; endogenous in cells
T1 sequence (P04150 1-777): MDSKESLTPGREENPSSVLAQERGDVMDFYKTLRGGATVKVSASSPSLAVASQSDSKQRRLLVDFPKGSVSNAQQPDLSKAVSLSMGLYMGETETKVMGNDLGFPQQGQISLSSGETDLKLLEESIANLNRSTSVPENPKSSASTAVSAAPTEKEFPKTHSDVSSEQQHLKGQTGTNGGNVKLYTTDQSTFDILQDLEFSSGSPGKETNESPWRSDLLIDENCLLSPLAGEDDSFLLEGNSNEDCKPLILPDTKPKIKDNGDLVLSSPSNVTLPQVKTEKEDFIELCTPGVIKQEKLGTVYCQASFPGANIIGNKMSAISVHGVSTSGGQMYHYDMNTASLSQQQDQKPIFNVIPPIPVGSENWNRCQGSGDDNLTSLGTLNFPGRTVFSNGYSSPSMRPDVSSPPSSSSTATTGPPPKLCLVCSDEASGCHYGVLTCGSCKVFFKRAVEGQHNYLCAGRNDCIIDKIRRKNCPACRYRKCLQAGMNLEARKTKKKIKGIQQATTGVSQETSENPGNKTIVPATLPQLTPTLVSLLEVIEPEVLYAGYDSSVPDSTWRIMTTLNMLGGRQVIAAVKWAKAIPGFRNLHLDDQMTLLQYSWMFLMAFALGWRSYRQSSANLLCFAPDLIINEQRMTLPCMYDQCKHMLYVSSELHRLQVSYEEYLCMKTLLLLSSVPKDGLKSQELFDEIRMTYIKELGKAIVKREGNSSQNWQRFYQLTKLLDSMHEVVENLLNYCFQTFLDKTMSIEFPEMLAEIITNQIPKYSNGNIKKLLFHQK
In words: Trans-Activation Modulation of Glucocorticoid Receptor Assay (GRAMMER), MMTV-LUC reporter in A549 cells. It counts as cell-based. The following applies: for Transactivation A549 Cells GRAMMER Emax (%): Emax relative to the activity obtained with 300 nM dexamethasone; for EC50: inflection point (IP), MMTV-LUC reporter, read-out: Transactivation A549 Cells GRAMMER IP; for Emax: A549, Emax relative to the activity obtained with 300 nM dexamethasone, read-out: Transactivation A549 Cells GRAMMER Emax (%). An excerpt:
This assay assesses the ability of test compounds to control transcription from the MMTV-LUC reporter gene in lung adenocarcinoma A549 cells or HeLa cells, a human […] cell line that naturally expresses the human GR. The assay measures induction of a modified MMTV LTR/promoter linked to the LUC reporter gene.
The routine transient assay consists of plating 7,000-25,000 cells/well of a white, clear-bottom 96-well plate. Alternatively, 384-well plates can be used at a cell concentration of 10,000/well. The media that the cells are plated in is “exponential growth medium” which consists of phenol red-free RPMI1640 containing 10% FBS, 4 mM L-glutamine, 20 mM HEPES, 10 ug/mL human insulin, and 20 ug/mL gentamicin. Incubator conditions are 37° C. and 5% CO2. The transfection is done in batch mode. The cells are trypsinized and counted to the right cell number in the proper amount of fresh media. It is then gently mixed with the FuGene6/DNA mix and plated onto the 96 or 384-well plate, all the wells receive 100 uL or 40 uL, respectively, of medium+lipid/DNA complex then incubated 37° C. overnight. The transfection cocktail consists of serum-free OptiMEM, FuGene6 reagent and DNA. The manufacturer's (Roche Biochemical) protocol for cocktail setup is as follows: The lipid to DNA ratio is approximately 2.5:1 and the incubation time is 20 min at room temperature. Sixteen to 24 hours after transfection, the cells are treated with dexamethasone to a final concentration of 10 nM as well as the compound of interest, such that final DMSO (vehicle) concentration is equal to or less than 1%. Each plate also contains samples that are treated with 10 nM dexamethasone alone, which is used as the 100% activity control. The cells are exposed to the compounds for 24 hours. After 24 hours, the cells are lysed by a Promega cell culture lysis buffer for approximately 30 min and then the luciferase activity in the extracts is assayed in the 96-well format luminometer. In 384-well format, Steady-Glo (Promega) or Steady-Lite (PerkinElmer) can be used by adding an equal volume of reagent to the media present in each well. Activity induced by 10 nM dexamethasone alone is set at 100% activity. Antagonist activity is calculated by determining the decrease in dexamethasone-induced activity in response to compound treatment relative to samples that were treated with dexamethasone alone. Results are expressed as % inhibition of 10 nM dexamethasone activity or as fold of 10 nM dexamethasone activity. This transactivation assay can be performed in an agonist and antagonist mode to identify these different activities.
Activity of test compounds is calculated as the Emax relative to the activity obtained with 300 nM dexamethasone. Activity of test compounds is calculated as the Emax relative to the activity obtained with 300 nM DEX. The exemplified tissue selective glucocorticoid receptor modulators of the present invention display agonist activity in this assay of greater than 5% and less than 100%, and maximal transactivation activity less then maximal transrepression activity. […]

On to `C[C@]12Cc3cnn(-c4cccc(F)c4)c3C=C1CC[C@@]2(CO)CC(O)c1ccccn1` (single isomer, unassigned) [Example 19b], for which the “Transactivation A549 Cells GRAMMER Emax (%)” value is 24.2% and the EC50 amounted to 94.8 nM.

Take `C[C@]12Cc3cnn(-c4ccc(F)cc4)c3C=C1CC[C@@]2(CO)CC(O)C1CC1` (single isomer, unassigned) [Example 20a, 1-cyclopropyl-2-[(4αS)-1-(4-fluorophenyl)-5-(hydroxymethyl)-4α-methyl-1,4,4α,5,6,7-hexahydrocyclopenta[f]indazol-5-yl]ethanol]: the “Transactivation A549 Cells GRAMMER Emax (%)” value was found to be 23.1% and the EC50 was found to be 187 nM.

Regarding `C[C@]12Cc3cnn(-c4ccc(F)cc4)c3C=C1CC[C@@]2(CO)CC(O)C1CC1` (single isomer, unassigned) [Example 20b, 1-cyclopropyl-2-[(4αS)-1-(4-fluorophenyl)-5-(hydroxymethyl)-4α-methyl-1,4,4α,5,6,7-hexahydrocyclopenta[f]indazol-5-yl]ethanol], the “Transactivation A549 Cells GRAMMER Emax (%)” value is on record as 11.3% and the EC50 came out at 808 nM.

Turning to `COc1cccnc1C(O)C[C@]1(CO)CCC2=Cc3c(cnn3-c3ccc(F)cc3)C[C@@]21C` (single isomer, unassigned) [Example 21a], the “Transactivation A549 Cells GRAMMER Emax (%)” value turned out to be 32.4% and the EC50 stood at 152 nM.

With `COc1cccnc1C(O)C[C@]1(CO)CCC2=Cc3c(cnn3-c3ccc(F)cc3)C[C@@]21C` (single isomer, unassigned) [Example 21b], the “Transactivation A549 Cells GRAMMER Emax (%)” value was 64.8% and the EC50 is 40.2 nM.

Turning to `C[C@]12Cc3cnn(-c4ccc(F)cc4)c3C=C1CC[C@@]2(CO)CC(O)c1ccc(F)cn1` (single isomer, unassigned) [Example 22a], the Emax turned out to be 63.2% and the EC50 amounted to 28.8 nM.

Regarding `C[C@]12Cc3cnn(-c4ccc(F)cc4)c3C=C1CC[C@@]2(CO)CC(O)c1ccc(F)cn1` (single isomer, unassigned) [Example 22b], the “Transactivation A549 Cells GRAMMER Emax (%)” value came to 74.3% and the EC50 worked out at 64.2 nM.

Consider `C[C@]12Cc3cnn(-c4ccccc4)c3C=C1CC[C@@]2(CO)CC(O)c1ccccn1` (single isomer, unassigned) [Example 23a], for which the maximal response (Emax) worked out at 39.4% and the EC50 is 49.7 nM.

`C[C@]12Cc3cnn(-c4ccccc4)c3C=C1CC[C@@]2(CO)CC(O)c1ccccn1` (single isomer, unassigned) [Example 23b]: the “Transactivation A549 Cells GRAMMER Emax (%)” value turned out to be 47.7% and the EC50 was 63.2 nM.

In the case of `COc1ccc(C(O)C[C@]2(CO)CCC3=Cc4c(cnn4-c4ccc(F)cc4)C[C@@]32C)nc1` (single isomer, unassigned) [Example 24a], the maximal effect (Emax) worked out at 7.6% and the EC50 was 470 nM.

Regarding `COc1ccc(C(O)C[C@]2(CO)CCC3=Cc4c(cnn4-c4ccc(F)cc4)C[C@@]32C)nc1` (single isomer, unassigned) [Example 24b], the “Transactivation A549 Cells GRAMMER Emax (%)” value amounted to 4.5% and the EC50 is 1000 nM.

For the molecule `CC(O)(C[C@]1(CO)CCC2=Cc3c(cnn3-c3ccc(F)cc3)C[C@@]21C)c1cccnc1` (single isomer, unassigned) [Example 25a], the Emax stood at 7.9% and the EC50 is 291 nM.

With `CC(O)(C[C@]1(CO)CCC2=Cc3c(cnn3-c3ccc(F)cc3)C[C@@]21C)c1cccnc1` (single isomer, unassigned) [Example 25b], the “Transactivation A549 Cells GRAMMER Emax (%)” value was 7.6% and the EC50 came to 401 nM.

As for `COc1cccnc1C(O)C[C@]1(CO)CCC2=Cc3c(cnn3-c3cccc(F)c3)C[C@@]21C` (single isomer, unassigned) [Example 26a], the “Transactivation A549 Cells GRAMMER Emax (%)” value was 24.8% and the EC50 turned out to be 144 nM.

`COc1cccnc1C(O)C[C@]1(CO)CCC2=Cc3c(cnn3-c3cccc(F)c3)C[C@@]21C` (single isomer, unassigned) [Example 26b]: the “Transactivation A549 Cells GRAMMER Emax (%)” value was found to be 4.3% and the EC50 is 653 nM.

For `C[C@]12Cc3cnn(-c4cccc(F)c4)c3C=C1CC[C@@]2(CO)CC(O)c1cccnc1` (single isomer, unassigned) [Example 27a], the “Transactivation A549 Cells GRAMMER Emax (%)” value was found to be 6.8% and the EC50 came out at 357 nM.

For the molecule `C[C@]12Cc3cnn(-c4cccc(F)c4)c3C=C1CC[C@@]2(CO)CC(O)c1cccnc1` (single isomer, unassigned) [Example 27b], the “Transactivation A549 Cells GRAMMER Emax (%)” value is 15.4% and the EC50 worked out at 634 nM.

As for `C[C@]12Cc3cnn(-c4ccc(F)cc4)c3C=C1CC[C@@]2(CO)CC(O)C(F)(F)F` (single isomer, unassigned) [Example 28a], the maximal effect (Emax) was 60.4% and the EC50 was found to be 107 nM.

Take `C[C@]12Cc3cnn(-c4ccc(F)cc4)c3C=C1CC[C@@]2(CO)CC(O)C(F)(F)F` (single isomer, unassigned) [Example 28b]: the “Transactivation A549 Cells GRAMMER Emax (%)” value came out at 42.3% and the EC50 turned out to be 107 nM.

Consider `C[C@]12Cc3cnn(-c4ccccc4)c3C=C1CC[C@@]2(CO)CC(O)c1cccnc1` (single isomer, unassigned) [Example 29a], for which the “Transactivation A549 Cells GRAMMER Emax (%)” value came to 30.7% and the EC50 came out at 168 nM.

Take `C[C@]12Cc3cnn(-c4ccccc4)c3C=C1CC[C@@]2(CO)CC(O)c1cccnc1` (single isomer, unassigned) [Example 29b]: the “Transactivation A549 Cells GRAMMER Emax (%)” value was 13.7% and the EC50 amounted to 121 nM.

Regarding `C[C@]12Cc3cnn(-c4ccc(F)cc4)c3C=C1CC[C@@]2(CO)CC(O)c1ccccc1F` (stereo partly drawn) [Example 4, 1-(2-fluorophenyl)-2-[(4αS,5R)-1-(4-fluorophenyl)-5-(hydroxymethyl)-4α-methyl-1,4,4α,5,6,7-hexahydrocyclopenta[f]indazol-5-yl]ethanol], the Emax was 80.3% and the EC50 is 39.7 nM.

In the case of `C[C@]12Cc3cnn(-c4ccc(F)cc4)c3C=C1CC[C@@]2(CO)CC(O)c1cccc(Cl)c1` (stereo partly drawn) [Example 8, 1-(3-chlorophenyl)-2-[(4αS,5R)-1-(4-fluorophenyl)-5-(hydroxymethyl)-4α-methyl-1,4,4α,5,6,7-hexahydrocyclopenta[f]indazol-5-yl]ethanol], the Emax amounted to 56% and the EC50 was determined as 32.2 nM.

`C[C@]12Cc3cnn(-c4ccc(F)cc4)c3C=C1CC[C@@]2(CO)CC(O)c1cc(F)cc(F)c1` (stereo partly drawn) [Example 9, 1-(3,5-difluorophenyl)-2-[(4αS,5R)-1-(4-fluorophenyl)-5-(hydroxymethyl)-4α-methyl-1,4,4α,5,6,7-hexahydrocyclopenta[f]indazol-5-yl]ethanol]: the Emax stood at 80.3% and the EC50 worked out at 3.2 nM.
